Data taken from patent US8871772B2, “Therapeutic methods and compounds” (Ampio Pharmaceuticals, Inc., priority 2008, dated 2014).

Assays:
Assay type in all cases: cell-based
[1] = tested on: human umbilical vein endothelial cells (HUVECs); test: Proliferation of HUVECs, Promega cell titer assay; conditions: 72 hours
Experimental: Assays were performed to determine the effect of Cpd. 5 on proliferation of human umbilical vein endothelial cells (HUVECs). Passage 4-5 HUVECs, human source lot number 13047 (obtained from Lonza) were put into the wells of a 96-well tissue culture plate at 1200 cells/well in 100 μl endothelial growth medium-2 (EGM-2) complete medium (obtained from Lonza). A 50 mM stock solution of Cpd. 5 was prepared in DMSO and frozen at −80° C. Aliquots of the stock solution were removed and dilutions containing from 50 μM to 300 μM Cpd. 5 were made in EGM-2 complete medium (Lonza). Controls containing equivalent amounts of DMSO to the 200 μM solution were mixed for comparative purposes. 100 μl of the resulting solutions were then added to the cells in the 96-well culture plates in triplicate and placed in a 37° C. incubator with 5% CO2 for 72 hours.
Following incubation, cell proliferation was assayed by adding 20 μl Promega cell titer aqueous one reagent to each well. Promega cell titer reagent is a solution containing a tetrazolium dye that is reduced by living cells to a formazan dye, and this reduction is proportional to the number of living cells present in the well. The plates were incubated at 37° C. for an additional 4 hours to allow the colorimetric assay to develop, and the OD of each well was determined in a microplate reader using a 530 nm filter. The OD of wells containing cell titer reagent in culture medium with no cells was subtracted from the OD of all experimental readings.
(§1) The % decrease of the total cell titer signal was determined using the following formula. ((Diluent OD−Experimental OD)/Diluent OD))×100. Data are presented in Table 7 as mean % decrease of cell titer signal of three separate experiments, plus or minus standard deviation. In the mean % decrease column, a positive number means a decrease in cell titer signal, while a negative number means an increase in cell titer signal. The p values were calculated versus diluent controls.

[2] = tested on: MMP-9; test: Release of MMP-9 from STTG astrocytoma cells, gelatin zymogram; conditions: data not shown
[3] = tested on: STTG cells; test: Cytotoxicity on confluent STTG monolayers, cell titer assay
Experimental: To determine whether the decrease in cell titer signal caused by Cpd. 5 was due to the inhibition of proliferation or to cytotoxicity, STTG and AU565 cells were seeded at 10,000 cells/well in 96-well plates and grown until a confluent monolayer was obtained. Under these conditions, the cells should no longer proliferate. The culture medium was IMDM supplemented with 10% FBS. After the cells reached confluence, the culture medium was removed by aspiration and replaced with fresh medium containing the test compounds (see Table 2 below). The cell cultures were incubated for an additional 24 hours in the presence of the added compounds and then the cell titer signal was assayed by adding 20 μl Promega cell titer aqueous one reagent to each well. The plates were incubated at 37° C. for an additional 2 hours to allow the colorimetric assay to develop, and the OD of each well was determined in a microplate reader using a 530 nm filter. The OD of wells containing cell titer reagent in culture medium with no cells was subtracted from the OD of all experimental readings.
as §1, with “2” for “7”, “increase.” for “increase in cell titer signal.”
This experiment was repeated, except using incubations of 18 hours, instead of 24 hours, in the presence of the compounds and 4 hours, instead of 2 hours, for color development.

[4] = tested on: MMP-9; test: Secretion of MMP-9 by BT001 glioma cells, gelatin zymogram; conditions: 48 hours
Experimental: Assays were performed to determine the effect of Cpd. 5 (synthesis described in Example 1) on the secretion of MMP-9 by the BT001 glioma cell line. The BT001 cell line was established as follows from cells obtained after surgery. The excised tissue was treated briefly with a protease cocktail, and the resulting cell suspension was cultured in IMDM supplemented with 10% FBS. Expanded cells were then frozen for future use.
A fresh 50 mM stock solution of Cpd. 5 was prepared in ethanol and warmed to 37° C. Aliquots of the stock solution were removed and diluted in IMDM supplemented with 0.1% FBS, insulin-transferrin-sodium selenite (ITSS) solution, and penicillin/streptomycin solution to prepare experimental culture media (final concentrations of Cpd. 5 ranged from 10-100 μM). Ethanol in the culture medium was used as diluent control.
The BT001 cells were cultured in 25 cm^2 flasks in IMDM containing 10% FBS at 37° C. and 5% CO2. When cells reach 70-80% confluence, they were washed two times with IMDM that had been warmed to 37° C. in a water bath. The experimental culture media containing Cpd. 5 were then added to the flasks (4.5 ml per flask), and the flasks were incubated at 37° C. and 5% CO2 for 48 hours. The conditioned media were then removed from the cells, and cellular debris was removed by centrifugation at 2000 rpm for 10 minutes. The supernatants were then transferred to sterile tubes and stored at −20° C.
Gelatin zymograms were used to evaluate MMP release and activity in the samples. Precast 10% polyacrylamide gels impregnated with gelatin were obtained from Invitrogen, Carlsbad, Calif. Ten μL, of each of the thawed conditioned media were mixed with an equal volume of SDS-PAGE loading dye without reducing agent (obtained from Invitrogen, Carlsbad, Calif.), applied to the gels and separated at 150 volts for 1 hour. The gels were then processed following the manufacturer's recommended protocol (includes renaturing the gels for one hour and incubating overnight at 37° C. with gentle shaking for protease digestion of gelatin). Visualization of MMP activity was done by staining the gel with Invitrogen Simple Safe blue commassie solution and photographing the gel on a Kodak Image station. The intensity of the bands in the photos was determined using bundled Kodak software. Percent decrease was determined with the following formula: (Intensity of diluent control)−(Intensity of treatment)/(Intensity of diluent control)×100. The data presented in Table 4 are the means of three or four replicate experiments.

[5] = tested on: endothelial cells; test: Endothelial cell tube formation; conditions: 50 μM or 100 μM
Experimental: When endothelial cells are cultured on extracellular matrix protein gels in the presence of angiogenic signals, they arrange themselves into structures loosely resembling capillary blood vessels (“tube formation”). Cpd.

[6] = tested on: MMP-9; test: Release of MMP-9 from primary human microglial cells, gelatin zymogram; conditions: supernatants concentrated 10×

| Structure (SMILES) | MEAN % DECREASE of cell titer signal ([1]; 25 μM) | MEAN % DECREASE of cell titer signal ([1]; 50 μM) | MEAN % DECREASE of cell titer signal ([1]; 100 μM) | effect on the release of MMP-9 from the STTG cells [2] | MEAN % DECREASE of cell titer signal ([3]; 10 μM, 18 hours) | MEAN % DECREASE of cell titer signal ([3]; 10 μM, 24 hours) | MEAN % DECREASE of cell titer signal ([3]; 50 μM, 18 hours) | MEAN % DECREASE of cell titer signal ([3]; 50 μM, 24 hours) | MEAN % DECREASE of cell titer signal ([3]; 100 μM, 18 hours) | MEAN % DECREASE of cell titer signal ([3]; 100 μM, 24 hours) | MEAN % DECREASE ACTIVE MMP-9 ([4]; BT001, 10 μM) | MEAN % DECREASE PRO-MMP-9 ([4]; BT001, 10 μM) | MEAN % DECREASE ACTIVE MMP-9 ([4]; BT001, 50 μM) | MEAN % DECREASE PRO-MMP-9 ([4]; BT001, 50 μM) | MEAN % DECREASE ACTIVE MMP-9 ([4]; BT001, 100 μM) | MEAN % DECREASE PRO-MMP-9 ([4]; BT001, 100 μM) | effect on tube formation [5] | inhibition at 100 µM ([6]; 100 μM, read-out: inhibition of the release of active MMP-9) | inhibition of the release of pro-MMP-9 ([6]; data not shown) |
| --- | --- | --- | --- | --- | --- | --- | --- | --- | --- | --- | --- | --- | --- | --- | --- | --- | --- | --- | --- |
| COC(=O)C(c1ccc(-c2ccccc2)cc1)C1NC(=O)CNC1=O (stereo not drawn) [Cpd. 5, biphenyl-4-yl-(3,6-dioxo-piperazin-2-yl)-acetic acid methyl ester] | −48.60% | −14.44% | 62.04% | no effect | 0.81% | −7.13% | 21.25% | −1.76% | 18.96% | −10.79% | 49.55 ± 21.49% | 6.89 ± 20.51% | 40.51 ± 9.73% | 36.13 ± 20.53% | 71.08 ± 17.47% | 45.55 ± 20.50% | no observable effect | 35.9% | did not inhibit |
| O=c1cc(N2CCOCC2)oc2c(-c3ccccc3)cccc12 [LY294002, reference compound] |  |  |  |  |  |  | 26.27% | 26.12% |  |  |  |  |  |  |  |  |  |  |  |
